Experiment in all cases: growth of human tumour cells (NCI), 48 h
Assay [1] relates to KM12 colon.
In assay [2] the test system is NCI-H23 lung.
Assay [3] concerns MALME-3M melanoma.
In assay [4] the test system is PC-3 prostate.
In assay [5] the test system is A549 NSCLC.
The test system of assay [6] is HOP-92 NSCLC.
Assay [7] has as its system CCRF-CEM leukemia.
Assay [8] has as its system HCC-2998 colon.
In assay [9] the test system is RPMI-8226 leukemia.
Assay [10] has as its system HT29 colon.

Where “and” joins values, the source holds several entries; their conditions need not be identical. Identical values can stand only once.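 Exposure lasted 48 hours, with cells grown in 96-well plates and compounds tested at five concentrations. GI50 = concentration required for 50% inhibition of growth. TGI marks complete inhibition of growth.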

Take `CC1CCC(O)/C=C/C(=O)OC(C)C(O)/C=C/C(=O)O1` (stereo unspecified): the TGI in assay [1], in [2], in assay [3], in assay [4], in [5] and in assay [6] was over 100 µM each time. Moreover, the TGI was over 79.9 µM in [7], over 100 µM in [8], over 100 µM in [9] and over 100 µM in assay [10].
Take `O=C(O)c1cc(/C=C/c2ccc(O)c(O)c2)ccc1O`: the TGI in assay [1], in assay [2], in assay [3], in [4], in assay [5] and in assay [6] was over 100 µM throughout. In addition, the TGI in assay [7] was 82.1 µM; in assay [8] it was over 100 µM; in assay [9] it was over 100 µM; in assay [10] it was over 100 µM.
Consider `C=CCCCN1C(=O)C2C3c4ccccc4C(C=O)(c4ccccc43)C2C1=O` (stereo unspecified), for which the TGI in assay [1] came out at 21.6 µM; in [2], 33 µM; in assay [3], 26.4 µM; in assay [4], 26.3 µM; in assay [5], 35.9 µM; in assay [6], 28.2 µM. The TGI in assay [7] is 17.6 µM; in assay [8], 28.5 µM; in [9], 28.5 µM; in assay [10], 27.5 µM.
On to `COC(=O)c1ccc2c(c1)CCN2C(=O)c1cc2c(cc1Br)OCO2`, for which the GI50 in [1] is 0.532 µM; in [2] it was 0.746 µM; in assay [5] it was 3.27 µM; in assay [6], 0.432 µM; in assay [7], 0.742 µM; in assay [8], 21.2 µM. Further, the GI50 in [9] was 1.15 µM; in assay [10], 0.507 µM. Moreover, the TGI in assay [1] was 50 µM and > 100 µM; in assay [2], 50 µM and 6.16 µM; in assay [3], 50 µM; in assay [4] it was 5.52 µM and 20.6 µM; in [5], 50 µM and > 100 µM; in assay [6] it was 50 µM and 40.3 µM. Besides, the TGI in assay [7] is 50 µM and > 100 µM; in [10] it was 50 µM and 12.1 µM.
With `c1ccc2c(c1)N=c1ccccc1=P21c2ccccc2Nc2ccccc21`, the TGI in [1] came out at 2.13 µM; in assay [2], 5.34 µM; in assay [3], 0.868 µM; in assay [4], 10.1 µM; in [5], 15.3 µM; in assay [6] it was 2.32 µM. Also, the TGI was 0.737 µM in [7], 4.06 µM in assay [8], 0.616 µM in [9] and 10.1 µM in assay [10].
